Source: PubChem BioAssay AID248 (DTP/NCI, 2004)
Toxic doses and inconclusive results are not listed. Rule as the data show it: active = T/C of 150% or more; inactive = T/C below 125%.

Test system: L1210 leukemia ip in BDF1 mice, survival T/C
Assay: NCI In Vivo Anticancer Drug Screen. Data for tumor model L1210 Leukemia (intraperitoneal) in B6D2F1 (BDF1) mice
Conditions: endpoint: mean survival time, higher = longer survival
In short: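 Tumor cells were implanted, animals were treated, and survival was followed. The result divides the treated measurement by the vehicle-control measurement.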

[1] = dose: 100.0 mg/kg/injection, schedule: Q01DX009 (ip), vehicle: Klucel (hydroxypropylcellulose) (HPC)
[2] = dose: 100.0 mg/kg/injection, schedule: Q01DX009 (ip), vehicle: saline
[3] = dose: 100.0 mg/kg/injection, schedule: Q04DX003 (ip), vehicle: saline with Tween-80
[4] = dose: 100.0 mg/kg/injection, schedule: Q04DX003 (ip), vehicle: saline
[5] = dose: 200.0 mg/kg/injection, schedule: Q01DX009 (ip), vehicle: Klucel (hydroxypropylcellulose) (HPC)
[6] = dose: 200.0 mg/kg/injection, schedule: Q04DX003 (ip), vehicle: saline
[7] = dose: 100.0 mg/kg/injection, schedule: Q04DX003 (ip), vehicle: Klucel (hydroxypropylcellulose) (HPC)
[8] = dose: 200.0 mg/kg/injection, schedule: Q04DX003 (ip), vehicle: Klucel (hydroxypropylcellulose) (HPC)
[9] = dose: 400.0 mg/kg/injection, schedule: Q04DX003 (ip), vehicle: Klucel (hydroxypropylcellulose) (HPC)
[10] = dose: 100.0 mg/kg/injection, schedule: Q01DX001 (ip), vehicle: Klucel (hydroxypropylcellulose) (HPC)
[11] = dose: 100.0 mg/kg/injection, schedule: Q04DX002 (ip), vehicle: Klucel (hydroxypropylcellulose) (HPC)
[12] = dose: 12.5 mg/kg/injection, schedule: Q04DX003 (ip), vehicle: saline with Tween-80
[13] = dose: 25.0 mg/kg/injection, schedule: Q04DX003 (ip), vehicle: saline with Tween-80

Measured: T/C

CC(=O)Nc1cccc2cccnc12
inactive: dose: 12.5 mg/kg/injection, schedule: Q01DX009 (ip), vehicle: saline with Tween-80 92 % of control | dose: 25.0 mg/kg/injection, schedule: Q01DX009 (ip), vehicle: saline with Tween-80 95 % of control | dose: 50.0 mg/kg/injection, schedule: Q01DX009 (ip), vehicle: saline with Tween-80 90 % of control | dose: 75.0 mg/kg/injection, schedule: Q01DX001 (ip), vehicle: other 104 % of control | dose: 75.0 mg/kg/injection, schedule: Q01DX009 (ip), vehicle: other 98 % of control | dose: 75.0 mg/kg/injection, schedule: Q01DX009 (ip), vehicle: saline with Tween-80 87 % of control | [1] 90 % of control | [2] 93 % of control | [3] 107 % of control | [4] 108 % of control | dose: 150.0 mg/kg/injection, schedule: Q01DX001 (ip), vehicle: other 103 % of control | [5] 93 % of control | dose: 200.0 mg/kg/injection, schedule: Q01DX009 (ip), vehicle: saline 95 % of control | [6] 106 % of control | dose: 300.0 mg/kg/injection, schedule: Q01DX001 (ip), vehicle: other 94 % of control | dose: 400.0 mg/kg/injection, schedule: Q04DX003 (ip), vehicle: saline 89 % of control

O=c1cc(CO)[nH]c(=O)[nH]1
inactive: dose: 50.0 mg/kg/injection, schedule: Q01DX001 (ip), vehicle: saline 104 % of control | dose: 50.0 mg/kg/injection, schedule: Q01DX009 (ip), vehicle: Klucel (hydroxypropylcellulose) (HPC) 94 % of control | dose: 100.0 mg/kg/injection, schedule: Q01DX001 (ip), vehicle: saline 102 % of control | [1] 90 % of control | dose: 200.0 mg/kg/injection, schedule: Q01DX001 (ip), vehicle: saline 98 % of control | [5] 97 % of control | dose: 400.0 mg/kg/injection, schedule: Q01DX001 (ip), vehicle: saline 98 % of control

O=C(O)c1ccc(S(=O)(=O)N(Cl)Cl)cc1
inactive: dose: 100.0 mg/kg/injection, schedule: Q01DX009 (ip), vehicle: saline with Tween-80 96 % of control | dose: 200.0 mg/kg/injection, schedule: Q01DX009 (ip), vehicle: saline with Tween-80 100 % of control | dose: 400.0 mg/kg/injection, schedule: Q01DX009 (ip), vehicle: saline with Tween-80 98 % of control

Cc1cc(O)c(CN(C)C)cc1O
inactive: dose: 75.0 mg/kg/injection, schedule: Q01DX001 (ip), vehicle: saline 103 % of control | dose: 150.0 mg/kg/injection, schedule: Q01DX001 (ip), vehicle: saline 104 % of control

CCCCCCCN(CCCCCCC)CC(O)c1c2ccccc2cc2c1ccc1ccccc12 (configuration not stated)
inactive: [1] 91 % of control | [7] 101 % of control | [5] 104 % of control | [8] 93 % of control | [9] 93 % of control

COC(=O)C1(C)CCCC2(C)C3CCC4(C)CC3(CCC12)OC4C (configuration not stated)
inactive: dose: 100.0 mg/kg/injection, schedule: Q04DX002 (ip), vehicle: saline with Tween-80 95 % of control | dose: 200.0 mg/kg/injection, schedule: Q04DX002 (ip), vehicle: saline with Tween-80 100 % of control | dose: 400.0 mg/kg/injection, schedule: Q04DX002 (ip), vehicle: saline with Tween-80 89 % of control

CCOC(=O)Nc1ccc(Cl)cc1Cl
inactive: [3] 97 % of control | dose: 200.0 mg/kg/injection, schedule: Q04DX003 (ip), vehicle: saline with Tween-80 105 % of control | dose: 400.0 mg/kg/injection, schedule: Q04DX003 (ip), vehicle: saline with Tween-80 87 % of control

Cn1cc([N+](=O)[O-])cnc1=O
inactive: [7] 100 % of control | [8] 102 % of control | [9] 102 % of control

OC1(c2ccc(Cl)cc2)CCN(C2CC2c2ccccc2)CC1 (configuration not stated)
inactive: [10] 98 % of control | dose: 200.0 mg/kg/injection, schedule: Q01DX001 (ip), vehicle: Klucel (hydroxypropylcellulose) (HPC) 97 % of control | dose: 400.0 mg/kg/injection, schedule: Q01DX001 (ip), vehicle: Klucel (hydroxypropylcellulose) (HPC) 98 % of control

CC1(C)N=C(N)N=C(N)N1c1ccc(CN)cc1
inactive: [4] 109 % of control | [6] 101 % of control

c1ccc2cc(C3OCC4(CCCC4)CO3)ccc2c1
inactive: [11] 103 % of control | dose: 200.0 mg/kg/injection, schedule: Q04DX002 (ip), vehicle: Klucel (hydroxypropylcellulose) (HPC) 95 % of control | dose: 400.0 mg/kg/injection, schedule: Q04DX002 (ip), vehicle: Klucel (hydroxypropylcellulose) (HPC) 103 % of control

CCCCNCCC(SSSC(CCNCCCC)c1ccc(Cl)cc1)c1ccc(Cl)cc1 (configuration not stated)
inactive: dose: 6.25 mg/kg/injection, schedule: Q04DX003 (ip), vehicle: saline with Tween-80 103 % of control | [12] 88 % of control | [13] 91 % of control

COC1c2cnc(C)n2C=CN1C(C)=O (configuration not stated)
inactive: dose: 25.0 mg/kg/injection, schedule: Q01DX009 (ip), vehicle: saline 102 % of control | dose: 50.0 mg/kg/injection, schedule: Q01DX009 (ip), vehicle: saline 100 % of control | [2] 91 % of control | [4] 108 % of control | [6] 98 % of control

C=CCc1cnc(C(F)(F)F)[nH]c1=O
inactive: dose: 25.0 mg/kg/injection, schedule: Q01DX001 (ip), vehicle: Klucel (hydroxypropylcellulose) (HPC) 93 % of control | dose: 50.0 mg/kg/injection, schedule: Q01DX001 (ip), vehicle: Klucel (hydroxypropylcellulose) (HPC) 94 % of control | [10] 94 % of control

CC(O)C(c1ccccc1)S(C)(=O)=O (configuration not stated)
inactive: [1] 117 % of control | [7] 104 % of control | [5] 96 % of control | [8] 111 % of control | dose: 400.0 mg/kg/injection, schedule: Q01DX009 (ip), vehicle: Klucel (hydroxypropylcellulose) (HPC) 95 % of control | [9] 94 % of control

COc1cc(CNC(=O)/C(C)=C/Cl)ccc1O
inactive: [12] 96 % of control | [13] 96 % of control | dose: 50.0 mg/kg/injection, schedule: Q04DX003 (ip), vehicle: saline with Tween-80 103 % of control

O=S(=O)(Nc1ccc2ccccc2c1)c1ccc2ccccc2c1
inactive: [7] 91 % of control | [8] 90 % of control | [9] 91 % of control

CC1=C2CCCC3(OCCO3)C2(C)CCC1=O (configuration not stated)
inactive: dose: 100.0 mg/kg/injection, schedule: Q04DX002 (ip), vehicle: other 98 % of control | dose: 200.0 mg/kg/injection, schedule: Q04DX002 (ip), vehicle: other 109 % of control | dose: 400.0 mg/kg/injection, schedule: Q04DX002 (ip), vehicle: other 102 % of control

O=[N+]([O-])c1ccc(N2N=NC3CC/C(=C\c4cccc([N+](=O)[O-])c4)C32N2CCOCC2)cc1 (configuration not stated)
inactive: dose: 25.0 mg/kg/injection, schedule: Q04DX002 (ip), vehicle: Klucel (hydroxypropylcellulose) (HPC) 104 % of control | dose: 50.0 mg/kg/injection, schedule: Q04DX002 (ip), vehicle: Klucel (hydroxypropylcellulose) (HPC) 101 % of control | [11] 88 % of control

NC(=O)C(=O)OCc1ccccc1
inactive: dose: 100.0 mg/kg/injection, schedule: Q01DX001 (ip), vehicle: steriod suspending solution 105 % of control | dose: 200.0 mg/kg/injection, schedule: Q01DX001 (ip), vehicle: steriod suspending solution 97 % of control | dose: 400.0 mg/kg/injection, schedule: Q01DX001 (ip), vehicle: steriod suspending solution 94 % of control
